Measurements: US11225481B2 (Centre national de la recherche scientifique, priority 2015, dated 2022)
Where two headings read alike, the source gives them in different places.

Tests used:
Assay type in all cases: binding
BRD4(BD1) = target: T1, BRD4(BD1) (Homo sapiens, UniProt O60885); experiment: HTRF assay, disruption of bromodomain/histone peptide interaction
T1 construct: a BRD4(BD1) synthetic gene that includes a TEV cleavage site was purchased from LifeTechnology; made in house
Outline: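 GST-tagged BRD4(BD1) mixed with histone peptide, then HTRF donor/acceptor added, in the presence of compound (1% final DMSO) and incubated overnight at room temperature. Read at 337 nm excitation, 665/620 nm emission ratio. Percent inhibition set against DMSO vehicle (max) and no-peptide (min) signals; IC50 measured in triplicate.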

BRD3(BD1) = target: T2, BRD3(BD1) (Homo sapiens, UniProt Q15059); experiment: HTRF bromodomain selectivity profile; settings: Table 3 selectivity profile
T2 construct: purchased BPS Bioscience
T2 sequence (Q15059 34-140 limits assumed): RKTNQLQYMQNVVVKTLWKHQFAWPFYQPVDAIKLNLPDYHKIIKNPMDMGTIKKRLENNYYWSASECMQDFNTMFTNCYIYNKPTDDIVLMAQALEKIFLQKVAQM
Method: (§1) Compounds were dispensed, with 200 nL per well (1% final DMSO), from a concentration stock of 1 mM in 100% DMSO and with serial DMSO dilutions, using a Mosquito Crystal pipetting robot platform (TTP labtech). […] All HTRF reagents were purchased from CisBio Bioassays and reconstituted according to the supplier protocols. For each assay 14.7 μL of mix 1 (protein+peptide) is added in the assay wells, containing previously dispensed inhibitors, according to the final concentration and buffer described in Table 4, using a Biomek NX MC pipetting robot (Beckman). Then, 5.1 μL of mix 2 (donnor+acceptor) is added. HTRF signals were measured, after a final incubation (overnight at room temperature), using a PHERAstar FS (BMG Labtech) with an excitation filter at 337 nm and fluorescence wavelength measurement at 620 and 665 nm, an integration delay of 60 μs and an integration time of 500 μs. Results were analyzed with a two-wavelengths signal ratio: […] Percentage of inhibition was calculated using the following equation: % inhibition=[(compound signal)−(min signal)]/[(max signal)−(min signal)]*100, where ‘max signal’ is the signal ratio with the compound vehicle alone (DMSO) and ‘min signal’ the signal ratio without peptide. For IC50 measurements, values were normalized and fitted with Prism (GraphPad software) using the following equation: […] Selectivity profiles of bromodomain inhibitors were performed as described in HTRF screen section. […] HTRF detection reagents (EPIgeneous™ Binding Domain kits) were purchased from Cisbio Bioassays and used according to supplier's protocol. GST tagged bromodomain proteins were purchased from BPS Bioscience and histone peptide from Anaspec. [table]

BRD3(BD2) = target: T3, BRD3(BD2) (Homo sapiens, UniProt Q15059); experiment: HTRF bromodomain selectivity profile; settings: Table 3 selectivity profile
T3 construct: purchased BPS Bioscience
T3 sequence (Q15059 306-415 limits assumed): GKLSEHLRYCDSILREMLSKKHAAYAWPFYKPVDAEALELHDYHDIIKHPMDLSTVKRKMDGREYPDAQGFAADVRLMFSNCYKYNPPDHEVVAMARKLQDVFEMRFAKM
Method: as §1

BRD2(BD1) = target: T4, BRD2(BD1) (Homo sapiens, UniProt P25440); experiment: HTRF bromodomain selectivity profile; settings: Table 3 selectivity profile
T4 construct: purchased BPS Bioscience
T4 sequence (P25440 74-180 limits assumed): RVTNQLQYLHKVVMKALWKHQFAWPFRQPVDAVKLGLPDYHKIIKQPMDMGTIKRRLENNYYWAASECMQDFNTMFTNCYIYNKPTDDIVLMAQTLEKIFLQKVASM
Method: (§2) HTRF assays were performed in white 384 Well Small Volume™ HiBase Polystyrene Microplates (Greiner) with a total working volume of 20 μL. Compounds were dispensed, with 200 nL per well (1% final DMSO), from a concentration stock of 1 mM in 100% DMSO and with serial DMSO dilutions, using a Mosquito Crystal pipetting robot platform (TTP labtech). The IC50 measurements were performed in triplicates (Table 2 and 3). All HTRF reagents were purchased from CisBio Bioassays and reconstituted according to the supplier protocols. For each assay 14.7 μL of mix 1 (protein+peptide) is added in the assay wells, containing previously dispensed inhibitors, according to the final concentration and buffer described in Table 4, using a Biomek NX MC pipetting robot (Beckman). Then, 5.1 μL of mix 2 (donnor+acceptor) is added. HTRF signals were measured, after a final incubation (overnight at room temperature), using a PHERAstar FS (BMG Labtech) with an excitation filter at 337 nm and fluorescence wavelength measurement at 620 and 665 nm, an integration delay of 60 μs and an integration time of 500 μs. Results were analyzed with a two-wavelengths signal ratio: [intensity (665 nm)/intensity (620 nm)]*10^4. Percentage of inhibition was calculated using the following equation: % inhibition=[(compound signal)−(min signal)]/[(max signal)−(min signal)]*100, where ‘max signal’ is the signal ratio with the compound vehicle alone (DMSO) and ‘min signal’ the signal ratio without peptide.
(§3) Selectivity profiles of bromodomain inhibitors were performed as described in HTRF screen section. […] HTRF detection reagents (EPIgeneous™ Binding Domain kits) were purchased from Cisbio Bioassays and used according to supplier's protocol. GST tagged bromodomain proteins were purchased from BPS Bioscience and histone peptide from Anaspec.

BRD2(BD2) = target: T5, BRD2(BD2) (Homo sapiens, UniProt P25440); experiment: HTRF bromodomain selectivity profile; settings: Table 3 selectivity profile
T5 construct: purchased BPS Bioscience
T5 sequence (P25440 344-453 limits assumed): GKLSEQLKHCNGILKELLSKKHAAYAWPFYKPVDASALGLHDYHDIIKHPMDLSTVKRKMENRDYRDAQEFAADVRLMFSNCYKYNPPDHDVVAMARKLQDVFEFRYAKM
Method: as §2, §3

BRDT(BD1) = target: T6, BRDT(BD1) (Homo sapiens, UniProt Q58F21); experiment: HTRF bromodomain selectivity profile; settings: Table 3 selectivity profile
T6 construct: purchased BPS Bioscience
Method: as §2, §3

BET bromodomains = experiment: Selectivity profile across BET bromodomains (HTRF)
Method: as §3

CCCCc1c(C)nc2nc(SCc3nc4c(c(=O)[nH]c(=O)n4CCCC)n3CC)nn2c1C [Compound 26b, 3-Butyl-8-(6-butyl-5,7-dimethyl-[1,2,4]triazolo[1,5-a]pyrimidin-2-ylsulfanylmethyl)-7-ethyl-3,7-dihydro-purine-2,6-dione] was tested, and the IC50 (BRD4(BD1); HTRF, Table 1′, TABLE 2, read-out: BRD4(BD1) IC50) was 5 µM, the IC50 (BRD4(BD1); HTRF, mean ± SD of three experiments, Table 2, read-out: IC50 μM, effect on BRD4(BD1) activity) was 5 µM and the “LE (Ligand Efficiency)” value (BRD4(BD1); LE = 1.4(−log(IC50)/N), BRD4(BD1)) was 0.22. For the same compound, the IC50 (BRD4(BD1); Table 3 selectivity profile, mean ± SD of three experiments, read-out: IC50 (μM) BRD4(BD1)) was 5 ± 0.1 µM, the IC50 (BRD3(BD1)) was 62 ± 7.8 µM and the IC50 (BRD3(BD2)) was over 100 µM. For the same compound, the “IC50 (μM) BRD3(BD2)” value (BRD3(BD2)) was “no detectable inhibition”, the IC50 (BRD2(BD1)) was 59 ± 2.9 µM and the IC50 (BRD2(BD2)) was over 100 µM. The “IC50 (μM) BRD2(BD2)” value (BRD2(BD2)) was “no detectable inhibition”, the IC50 (BRDT(BD1)) was over 100 µM and the “fold lower IC50 towards BRD4(BD1) as compared to its relatives BD1” value (BET bromodomains; HTRF) was 10 fold. For the same compound, the “selectivity profile among BET bromodomains” value (BET bromodomains; in words) was “selective towards BRD4(BD1)”.
